According to PubChem BioAssay AID330 (DTP/NCI, 2004):
Several values for one entry are separate records, joined by “and”; a condition that tells them apart may be missing. Equal entries are not always repeated. Toxic doses and inconclusive results are not listed. How the source made its calls: active means survival T/C of 150% or more; inactive means T/C below 125% in these data.

Tested on: P388 leukemia ip, CD2F1 mice, survival T/C
Test: NCI In Vivo Anticancer Drug Screen. Data for tumor model P388 Leukemia (intraperitoneal) in CD2F1 (CDF1) mice
Conditions: endpoint: median survival time, higher = longer survival
In short: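 Mice carrying the transplanted tumor received test compound or vehicle. Survival was recorded in each group, and the value is the treated-group measurement divided by that of the vehicle-treated control group.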

[1] = dose: 100.0 mg/kg/injection, schedule: Q01DX005 (ip), vehicle: saline with Tween-80
[2] = dose: 200.0 mg/kg/injection, schedule: Q01DX005 (ip), vehicle: saline with Tween-80
[3] = dose: 100.0 mg/kg/injection, schedule: Q04DX003 (ip), vehicle: saline
[4] = dose: 200.0 mg/kg/injection, schedule: Q04DX003 (ip), vehicle: saline
[5] = dose: 400.0 mg/kg/injection, schedule: Q04DX003 (ip), vehicle: saline
[6] = dose: 100.0 mg/kg/injection, schedule: Q04DX003 (ip), vehicle: Klucel (hydroxypropylcellulose) (HPC)
[7] = dose: 15.0 mg/kg/injection, schedule: Q01DX005 (ip), vehicle: saline with Tween-80
[8] = dose: 30.0 mg/kg/injection, schedule: Q01DX005 (ip), vehicle: saline with Tween-80
[9] = dose: 60.0 mg/kg/injection, schedule: Q01DX005 (ip), vehicle: saline with Tween-80

Measured: T/C

O=[N+]([O-])c1ccccc1N=Nc1c(-c2ccccc2)nn(C(=S)N2CCOCC2)c1-c1ccccc1
inactive: dose: 1.5 mg/kg/injection, schedule: Q01DX005 (ip), vehicle: saline with Tween-80 102 % of control | dose: 3.0 mg/kg/injection, schedule: Q01DX005 (ip), vehicle: saline with Tween-80 96 % of control | dose: 6.0 mg/kg/injection, schedule: Q01DX005 (ip), vehicle: saline with Tween-80 87 % of control | dose: 6.25 mg/kg/injection, schedule: Q01DX005 (ip), vehicle: saline with Tween-80 92 % of control | [1] 86 % of control | [2] 95 % of control

C=C1C(=O)OC2C1C(OC(=O)/C(C)=C/C)CC1(C)C(O)CCC(=C)C21 (stereo not given)
inactive: dose: 12.5 mg/kg/injection, schedule: Q01DX005 (ip), vehicle: Klucel (hydroxypropylcellulose) (HPC) 106 % of control | dose: 25.0 mg/kg/injection, schedule: Q01DX005 (ip), vehicle: Klucel (hydroxypropylcellulose) (HPC) 107 % of control | dose: 50.0 mg/kg/injection, schedule: Q01DX005 (ip), vehicle: Klucel (hydroxypropylcellulose) (HPC) 114 % of control | dose: 100.0 mg/kg/injection, schedule: Q01DX005 (ip), vehicle: Klucel (hydroxypropylcellulose) (HPC) 107 % of control | dose: 200.0 mg/kg/injection, schedule: Q01DX005 (ip), vehicle: Klucel (hydroxypropylcellulose) (HPC) 98 % of control

COc1ccc2c(c1)CCC1=C2CCS1(=O)=O
inactive: dose: 50.0 mg/kg/injection, schedule: Q01DX005 (ip), vehicle: saline with Tween-80 99 % of control | [1] 97 % of control | [2] 103 % of control

O=C(O)CCN1CCCc2ccccc21
inactive: dose: 100.0 mg/kg/injection, schedule: Q04DX003 (ip), vehicle: other 100 % of control | dose: 200.0 mg/kg/injection, schedule: Q04DX003 (ip), vehicle: other 100 % of control | dose: 400.0 mg/kg/injection, schedule: Q04DX003 (ip), vehicle: other 109 % of control

Cc1nc2n[nH]c(N)c2nc1C
inactive: [3] 100 % of control | [4] 104 % of control | [5] 95 % of control

O=C(Oc1ccc(OC(=O)c2ccc([N+](=O)[O-])cc2)cc1)c1ccccc1
inactive: dose: 50.0 mg/kg/injection, schedule: Q04DX003 (ip), vehicle: saline 101 % of control | dose: 100.0 mg/kg/injection, schedule: Q01DX001 (ip), vehicle: Klucel (hydroxypropylcellulose) (HPC) 95 % of control | [3] 95 % of control | dose: 200.0 mg/kg/injection, schedule: Q01DX001 (ip), vehicle: Klucel (hydroxypropylcellulose) (HPC) 95 % of control | [4] 102 % of control | dose: 400.0 mg/kg/injection, schedule: Q01DX001 (ip), vehicle: Klucel (hydroxypropylcellulose) (HPC) 101 % of control | [5] 96 % of control

COC(=O)/C=C(\C(=O)OC)C(C(C)=O)C(C)=NCCN=C(C)C(C(C)=O)/C(=C/C(=O)OC)C(=O)OC.[Cu] (stereo not given)
inactive: dose: 25.0 mg/kg/injection, schedule: Q04DX003 (ip), vehicle: Klucel (hydroxypropylcellulose) (HPC) 98 % of control | dose: 50.0 mg/kg/injection, schedule: Q04DX003 (ip), vehicle: Klucel (hydroxypropylcellulose) (HPC) 103 % of control | [6] 107 % of control and 117 % of control

NC(=S)N/N=C1/C(=O)N(c2ccc(Cl)cc2)C(=O)C1C(=O)Nc1ccc(Cl)cc1 (stereo not given)
inactive: [7] 97 % of control | [8] 94 % of control | [9] 93 % of control and 94 % of control

Cc1ccc(S(=O)(=O)/N=C\[N-][n+]2ccccc2C)cc1
inactive: dose: 50.0 mg/kg/injection, schedule: Q01DX009 (ip), vehicle: Klucel (hydroxypropylcellulose) (HPC) 101 % of control | dose: 100.0 mg/kg/injection, schedule: Q01DX009 (ip), vehicle: Klucel (hydroxypropylcellulose) (HPC) 93 % of control | dose: 200.0 mg/kg/injection, schedule: Q01DX009 (ip), vehicle: Klucel (hydroxypropylcellulose) (HPC) 92 % of control

[O-]/[N+](C1C(Cl)C2CC1C1C=CCC12)=[N+](\[O-])C1C(Cl)C2CC1C1C=CCC12 (stereo not given)
inactive: [7] 95 % of control | [8] 92 % of control | [9] 100 % of control and 86 % of control

CC1(C)CC(N=[N+]=[N-])CC(C)(C)N1O
inactive: [6] 100 % of control
